This note sets out measurements from patent US20060035869A1, “Inhibitors of epoxide hydrolases for the treatment of hypertension” (THE REGENTS OF THE UNIVERSITY OF CALIFORNIA OFFICE OF …, priority 1999, published 2006).

Read-outs that look alike come from different tables or passages of the source.

One test has as its target T1, Rat mEH (Rattus norvegicus, UniProt P07687).
T1 sequence (P07687 1-455): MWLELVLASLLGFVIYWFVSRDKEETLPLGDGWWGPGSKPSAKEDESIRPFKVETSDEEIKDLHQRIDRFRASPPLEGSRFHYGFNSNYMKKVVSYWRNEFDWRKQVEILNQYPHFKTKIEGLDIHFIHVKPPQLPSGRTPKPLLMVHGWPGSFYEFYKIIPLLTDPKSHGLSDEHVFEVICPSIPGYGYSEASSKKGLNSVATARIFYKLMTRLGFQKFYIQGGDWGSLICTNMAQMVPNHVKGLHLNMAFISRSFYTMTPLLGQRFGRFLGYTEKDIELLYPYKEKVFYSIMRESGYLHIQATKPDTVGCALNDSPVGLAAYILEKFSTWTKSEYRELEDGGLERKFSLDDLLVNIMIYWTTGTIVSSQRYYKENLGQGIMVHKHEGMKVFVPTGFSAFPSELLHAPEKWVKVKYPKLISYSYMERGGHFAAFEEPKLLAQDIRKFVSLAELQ
Nature of the test: Inhibition of mammalian microsomal EH, 3H-cis-stilbene oxide assay. In kind it is biochemical. On the procedure: (§1) The mixture was incubated at 30° C. for 5 minutes. […] Assays were performed in quadruplicate.

A further test deals with T2, mouse sEH (Mus musculus, UniProt P34914).
T2 construct: made in house; host or cells: baculovirus expression system (insect cells)
T2 sequence (P34914 1-554): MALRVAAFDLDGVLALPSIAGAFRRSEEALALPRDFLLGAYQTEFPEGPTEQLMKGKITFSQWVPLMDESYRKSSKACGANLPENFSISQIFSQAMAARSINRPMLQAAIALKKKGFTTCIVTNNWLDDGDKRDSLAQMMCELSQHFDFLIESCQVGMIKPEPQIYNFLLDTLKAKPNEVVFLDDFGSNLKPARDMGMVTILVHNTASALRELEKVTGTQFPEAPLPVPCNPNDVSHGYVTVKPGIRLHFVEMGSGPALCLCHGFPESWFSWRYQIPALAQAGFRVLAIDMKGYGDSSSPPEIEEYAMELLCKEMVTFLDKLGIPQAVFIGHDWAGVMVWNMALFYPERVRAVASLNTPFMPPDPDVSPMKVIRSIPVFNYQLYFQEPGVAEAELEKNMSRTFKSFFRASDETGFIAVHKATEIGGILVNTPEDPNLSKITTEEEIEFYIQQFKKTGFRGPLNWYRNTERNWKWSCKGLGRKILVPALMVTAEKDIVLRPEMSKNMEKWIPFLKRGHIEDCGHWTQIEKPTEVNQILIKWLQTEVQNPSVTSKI
The test is described as follows: Inhibition of recombinant mouse soluble EH, spectrophotometric NEP2C assay. In kind it is biochemical. The method, then:
(§2) Recombinant mouse sEH (MsEH) and human sEH (HsEH) were produced in a baculovirus expression system as previously reported. […] The expressed proteins were purified from cell lysate by affinity chromatography. […] Protein concentration was quantified using the Pierce BCA assay using bovine serum albumin as the calibrating standard.
as §1

The target of the next test is T3, human sEH (Homo sapiens, UniProt P34913).
T3 construct: made in house; host or cells: baculovirus expression system (insect cells)
T3 sequence (P34913 1-555): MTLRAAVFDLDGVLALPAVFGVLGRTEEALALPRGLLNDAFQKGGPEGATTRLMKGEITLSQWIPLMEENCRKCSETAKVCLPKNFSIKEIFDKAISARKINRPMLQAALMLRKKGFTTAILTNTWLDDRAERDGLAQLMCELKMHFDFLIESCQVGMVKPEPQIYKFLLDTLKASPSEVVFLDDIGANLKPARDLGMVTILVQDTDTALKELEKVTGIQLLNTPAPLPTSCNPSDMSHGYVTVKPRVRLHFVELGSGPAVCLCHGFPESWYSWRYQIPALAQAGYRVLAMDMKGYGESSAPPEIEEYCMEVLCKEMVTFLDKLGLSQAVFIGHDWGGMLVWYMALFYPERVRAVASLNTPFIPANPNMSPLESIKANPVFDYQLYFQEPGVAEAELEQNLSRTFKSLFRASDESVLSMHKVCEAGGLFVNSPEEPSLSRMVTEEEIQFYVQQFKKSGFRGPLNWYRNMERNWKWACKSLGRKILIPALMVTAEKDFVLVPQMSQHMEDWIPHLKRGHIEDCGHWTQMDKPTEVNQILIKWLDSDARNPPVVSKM
Nature of the test: Inhibition of recombinant human soluble EH, spectrophotometric NEP2C assay. The note with it: recombinant enzyme, NEP2C 40 μM, 30° C., pH 7.4. In kind it is biochemical. On the procedure: as §2, §1

A further test concerns the target T4, M secta mEH (Manduca sexta, UniProt Q25489).
T4 sequence (Q25489 1-462): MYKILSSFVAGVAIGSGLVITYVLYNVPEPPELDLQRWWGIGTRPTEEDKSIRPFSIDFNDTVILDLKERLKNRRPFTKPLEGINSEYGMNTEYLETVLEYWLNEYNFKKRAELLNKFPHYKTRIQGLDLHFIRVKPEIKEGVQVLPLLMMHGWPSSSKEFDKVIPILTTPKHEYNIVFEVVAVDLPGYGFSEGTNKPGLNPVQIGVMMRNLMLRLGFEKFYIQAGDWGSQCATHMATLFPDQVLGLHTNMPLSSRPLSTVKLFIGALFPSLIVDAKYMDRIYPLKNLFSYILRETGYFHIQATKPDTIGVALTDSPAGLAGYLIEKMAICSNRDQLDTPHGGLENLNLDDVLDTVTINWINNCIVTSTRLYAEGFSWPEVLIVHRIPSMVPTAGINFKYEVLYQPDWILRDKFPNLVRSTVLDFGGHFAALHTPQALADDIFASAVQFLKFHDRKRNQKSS
Nature of the test: Inhibition of recombinant insect microsomal EH. In kind it is biochemical.

Test [1] deals with leukotoxin/isoleukotoxin induced death. Nature of the test: Protection of mice against leukotoxin/isoleukotoxin induced death. Conditions: Swiss Webster mice, 400 mg/kg i.p. in corn oil 30 minutes before leukotoxin/isoleukotoxin methyl esters 700 mg/kg i.v. In kind it is in vivo, mouse. On the procedure: Male Swiss Webster mice (25-28 g) were purchased from Simonsen, Gilroy, Calif. The animals had free access to water and food. […] After 30 minutes of the pretreatment, the mice were treated intravenously through the tail vein with a 1:1 mixture of leukotoxin/isoleukotoxin methyl esters in ethanol (700 mg/kg, 1.0 ml/kg).
The mice died of respiratory distress after exposure to leukotoxin/isoleukotoxin. The lethal reactions took place sequentially with accelerated breathing, opening of the mouth to assist breathing, and bloody fluid running from the nose.

[2] abbreviates: recombinant enzyme, NEP2C 40 μM, 30° C., pH 7.4, read-out: Mouse sEH IC50.

The term IC50 denotes the point on the concentration scale where inhibition reaches its midpoint. For the compound `CCCCCCCCCCNC(=O)NCC` [Compound 28], the IC50 against Rat mEH worked out at 8.3 ± 0.4 µM; on mouse sEH (setting [2]) it was 5.8 ± 0.4 µM; on human sEH, 48 ± 3 µM. For `C(=NC1CCCCC1)=NC1CCCCC1` [Compound 1, dicyclohexylcarbodiimide], on mouse sEH (FIG. 1), the “effect of time on the inhibition of mouse sEH” value was “increased with the time”. With `O=C(NCc1ccc(Cl)cc1)NC1CCCCC1` [Compound 193], on Rat mEH, the IC50 was over 500 µM. In the case of `CCCCCCCCCCCCNC(=O)NCCF` [Compound 238], the results for the IC50 on Rat mEH, on mouse sEH (setting [2]) and at human sEH were 9.9 ± 0.2 µM, 50 ± 5 µM and 57 ± 1 µM, respectively. On to `O=C(NC1CCCCCCC1)NC1CCCCC1` [Compound 58], for which the values for the IC50 on M secta mEH and on Rat mEH were 3.9 ± 0.4 µM and over 500 µM, respectively.

Take `O=C(NC1CCCCC1)SC1CCCCC1` [Compound 11]: the IC50 at mouse sEH was determined as 3.8 ± 0.01 µM; on human sEH it was 7.5 ± 0.4 µM.

In turn, `O=C(NCC1CCCCC1)Nc1cccc(Cl)c1` [Compound 179] had an IC50 at Rat mEH of over 500 µM. `O=C(NCCCc1ccccc1)NC1CCCCC1` [Compound 104] yielded an IC50 on Rat mEH of over 500 µM. At Rat mEH, `CCOC(CCCNC(=O)Nc1cccc(Cl)c1)OCC` [Compound 167] gave an IC50 of over 500 µM. Consider `CNC(=O)Nc1ccc(Cl)c(Cl)c1` [Compound 32], for which the IC50 against Rat mEH was over 500 µM; at mouse sEH (setting [2]), 108 ± 4 µM; on human sEH, 47 ± 2 µM.

As for `O=C(Nc1ccc(Oc2ccccc2)cc1)NC1CCCCC1` [Compound 140], the half-maximal inhibitory concentration (IC50) against Rat mEH was over 500 µM. In the case of `[O-][S+](Cc1ccccc1)Cc1ccccc1` [Compound 161], the IC50 at Rat mEH was over 500 µM; at mouse sEH it was 156 ± 3 µM; at human sEH it was 289 ± 7 µM. On to `CCCCCCCCNC(=O)NC1CCCCC1` [Compound 168], for which the IC50 against Rat mEH was over 500 µM. `O=C(NC1CCCCC1)NC1CCCCC1` [Compound 2, N,N′-dicyclohexylurea]: the “animal death induced by leukotoxin/isoleukotoxin” value in test [1] is reported as “either blocked the animal death induced by leukotoxin/isoleukotoxin or lengthened the lives of the mice”. This compound registered an IC50 against Rat mEH of over 500 µM. On to `CCCCCCCCCCNC(=O)Nc1cccc(Cl)c1` [Compound 172], for which the IC50 on Rat mEH was over 500 µM. Regarding `S=C(NC1CCCCC1)NC1CCCCC1` [Compound 12], the values for the IC50 at mouse sEH (setting [2]) and on human sEH were 99 ± 5 µM and 20 ± 1 µM, respectively. `CCCCCCCCCCNC(=O)NC` [Compound 17]: the IC50 on M secta mEH was determined as 28 ± 2 µM. For the compound `CCCCCCCCNC(N)=O` [Compound 101], the IC50 against Rat mEH is 73 ± 1 µM; on mouse sEH (setting [2]), 1.04 ± 0.02 µM; on human sEH it was 5.5 ± 0.1 µM. `CCCCCCCCCCNC(=O)NCC` [Compound 19]: the IC50 on M secta mEH was 4.8 ± 0.4 µM. In the case of `O=C(NCC1CCCCC1)Nc1ccc2ccccc2c1` [Compound 169], the IC50 against Rat mEH was over 500 µM.

As for `CC1CCC(C(C)C)C(OC(=O)NC2CCCCC2)C1` (stereo not shown) [Compound 225], the IC50 is over 500 µM against Rat mEH and 1.05 ± 0.03 µM on human sEH. As to `CCCCCCCCCCN` [Compound 303], the values for the IC50 on Rat mEH, at mouse sEH (setting [2]) and on human sEH were 2.67 ± 0.07 µM, over 500 µM and over 500 µM, respectively. Take `[H]/N=C(\N/C(=N/[H])NCCCCCCNC(=N)NC(=N)Nc1ccc(Cl)cc1)Nc1ccc(Cl)cc1` [Compound 204]: the figures for the IC50 on mouse sEH (setting [2]) and at human sEH were over 250 µM and 49 ± 7 µM, respectively.

Consider `O=C(NCC1CCCCC1)NC1CCCCC1` [Compound 57], for which the IC50 against Rat mEH was over 500 µM. `CC(C)c1ccc(NC(=O)NCC2CCCCC2)cc1` [Compound 180] yielded an IC50 at Rat mEH of over 500 µM.
